Laboratory results published in the NIST ThermoML archive (doi:10.1016/j.jct.2017.03.006).

Test: xn = mol fraction of the nth substance listed
Conditions: Liquid, x1 = 1; for mass density: Vibrating tube method; for viscosity: Concentric cylinders viscometry

CCC(C)O (stereo unspecified) [butan-2-ol] + Cc1ccc(C)c(C)c1
Conditions	mass density [kg/m3]	viscosity [mPa·s]
273.15 K, 100 kPa	822.3	–
273.15 K, 1000 kPa	822.7	–
273.15 K, 2000 kPa	823.4	–
273.15 K, 5000 kPa	825.4	–
273.15 K, 10000 kPa	828.7	–
273.15 K, 15000 kPa	831.8	–
273.15 K, 20000 kPa	834.7	–
273.15 K, 30000 kPa	840.4	–
273.15 K, 40000 kPa	845.7	–
273.15 K, 50000 kPa	850.7	–
273.15 K, 60000 kPa	855.4	–
273.15 K, 70000 kPa	859.9	–
273.15 K, 80000 kPa	864.3	–
273.15 K, 90000 kPa	868.4	–
273.15 K, 100000 kPa	872.4	–
273.15 K, 110000 kPa	876.3	–
273.15 K, 120000 kPa	879.9	–
273.15 K, 130000 kPa	883.5	–
273.15 K, 140000 kPa	887.2	–
293.15 K, 100 kPa	806.3	3.725
293.15 K, 1000 kPa	807	–
293.15 K, 2000 kPa	807.8	–
293.15 K, 5000 kPa	810	–
293.15 K, 10000 kPa	813.6	–
293.15 K, 15000 kPa	817	–
293.15 K, 20000 kPa	820.2	–
293.15 K, 30000 kPa	826.5	–
293.15 K, 40000 kPa	832.3	–
293.15 K, 50000 kPa	837.7	–
293.15 K, 60000 kPa	842.8	–
293.15 K, 70000 kPa	847.7	–
293.15 K, 80000 kPa	852.3	–
293.15 K, 90000 kPa	856.7	–
293.15 K, 100000 kPa	860.9	–
293.15 K, 110000 kPa	865	–
293.15 K, 120000 kPa	868.8	–
293.15 K, 130000 kPa	872.7	–
293.15 K, 140000 kPa	876.3	–
303.15 K, 100 kPa	–	2.555
313.15 K, 100 kPa	789.4	1.814
313.15 K, 1000 kPa	790.1	–
313.15 K, 2000 kPa	791	–
313.15 K, 5000 kPa	793.5	–
313.15 K, 10000 kPa	797.5	–
313.15 K, 15000 kPa	801.4	–
313.15 K, 20000 kPa	805.1	–
313.15 K, 30000 kPa	811.9	–
313.15 K, 40000 kPa	818.3	–
313.15 K, 50000 kPa	824.1	–
313.15 K, 60000 kPa	829.6	–
313.15 K, 70000 kPa	835	–
313.15 K, 80000 kPa	839.9	–
313.15 K, 90000 kPa	844.6	–
313.15 K, 100000 kPa	849	–
313.15 K, 110000 kPa	853.3	–
313.15 K, 120000 kPa	857.5	–
313.15 K, 130000 kPa	861.5	–
313.15 K, 140000 kPa	865.4	–
323.15 K, 100 kPa	–	1.331
333.15 K, 100 kPa	770.7	1.007
333.15 K, 1000 kPa	771.6	–
333.15 K, 2000 kPa	772.6	–
333.15 K, 5000 kPa	775.5	–
333.15 K, 10000 kPa	780.1	–
333.15 K, 15000 kPa	784.4	–
333.15 K, 20000 kPa	788.6	–
333.15 K, 30000 kPa	796.2	–
333.15 K, 40000 kPa	803.2	–
333.15 K, 50000 kPa	809.6	–
333.15 K, 60000 kPa	815.7	–
333.15 K, 70000 kPa	821.4	–
333.15 K, 80000 kPa	826.7	–
333.15 K, 90000 kPa	831.8	–
333.15 K, 100000 kPa	836.6	–
333.15 K, 110000 kPa	841.2	–
333.15 K, 120000 kPa	845.5	–
333.15 K, 130000 kPa	849.8	–
333.15 K, 140000 kPa	853.9	–
